Reference: patent publication US5332759A, “Naphthalene amides and sulphonamides, processes for their preparation and pharmaceutical compositions containing them” (Adir et Compagnie, priority 1992, dated 1994)

Assays:
[1] = system: annular sections of the basilar artery of dogs; assay: In vitro vasoconstrictive activity in the basilar artery of dogs; conditions: dog basilar artery, endothelium removed
Method: Experiments are carried out on annular sections of the basilar artery of dogs from which the endothelium has been removed and which are placed in an organ chamber enabling the measurement of isometric contractions in the presence or absence of ketanserin.

[2] = system: annular sections of the coronary artery; assay: Effect on annular sections of the coronary artery; design: species or system dogs; conditions: same doses as in the basilar artery test
[3] = system: sections of the saphenous vein; assay: Effect on sections of the saphenous vein; design: species or system dogs; conditions: same doses as in the basilar artery test

| EC50 ([1]; isometric contractions, read-out: EC50, contraction of basilar artery sections) [nM] | SMILES | effect on annular sections of the coronary artery [2] | effect on sections of the saphenous vein [3] | induction of contractions in arterial sections [1] |
| --- | --- | --- | --- | --- |
| ~1000 | CNS(=O)(=O)Cc1ccc2cccc(CCN(C)C)c2c1 [Example 1, 2-{1-[2-(Dimethylamino)ethyl]naphth-7-yl}-N-methyl-methanesulphonamide] | does not show any significant effect | does not show any significant effect |  |
|  | NCCc1c[nH]c2ccc(O)cc12 [serotonin, reference compound] |  |  | capable of inducing contractions |
